One may read the IC50 as the concentration that gives 50% inhibition. A lower IC50 goes with higher potency. Broadly, the melting point is the temperature of the solid-liquid transition.

One data set concerns mGluR2/3. In words: microPET scan, baseline and after compound A pretreatment. As to conditions: SD rats. It is filed as in vivo. As for the experimental part: Data were acquired in a 128×128×95 matrix with a pixel width of 0.475 mm and a slice thickness of 0.796 mm. During PET imaging, rats were kept under gas anesthesia (2.5% isoflurane in oxygen at a flow rate of 1 l/min), and their body temperature was maintained between 36.5 and 37° C. using a heating pad. PET data were analyzed using Pmod software version 3.2 (Pmod, Zurich Switzerland).
(§1) Sprague-Dawley rats obtained from Harlan (the Netherlands), were housed in groups of four to six per cage until treatment. They were kept at a constant temperature of 21° C. and at a 12-h light/dark cycle, in which lights were switched on at 8:00 a.m. Animals had unrestricted access to food (Teklad Global 16% Protein Rodent Diet, Harlan, Madison, Wis., USA) and water. All animal experiments were performed in compliance with Belgium laws on animal experimentation and after approval by the local animal ethics committee.
All pretreatment solutions were 1 mg/mL solutions in 20% β-cyclodextrine in saline with a pH ranging between 6 and 8, and sterile filtered over a Millex GV filter prior to use.
For the baseline scan, 36-43 MBq of [^18F]-1 was injected in 3 SD rats weighing 229-251 g in the tail vein, and scanned simultaneously during a 90 min dynamic PET scan. For the pretreatment scan using compound A (a NAM compound, selective for mGlu2/3 (˜20 fold selective for 2 over 3) vs other mGluRs), the same animals were injected with 10 mg/kg compound A s.c. 60 minutes prior to injection of 38-37 MBq [^18F]-1 in the tail vein, and scanned simultaneously during a 90 minutes dynamic PET scan.
For the baseline scan, 39-49 MBq of [^18F]-2 was injected in 3 SD rats weighing 301-310 g in a tail vein, and scanned simultaneously during a 90-min dynamic PET scan. For the pretreatment scan using compound A, the same animals were injected with 10 mg/kg compound A s.c. 60 min prior to injection of 46-50 MBq [^18F]-2 in the tail vein, and scanned simultaneously during a 90 min dynamic PET scan.

A short description of data set [1]: Ex-vivo biodistribution in SD rats. Details: species or system Sprague Dawley rats. As for the experimental part:
as §1
The biodistribution of [^18F]-1 was determined at 2, 10, 30 and 60 min, after injection in Sprague Dawley (SD) rats (n=3 per time point) while for [^18F]-2 the 30 min time point was not performed. Rats were injected intravenously with 0.7-1.1 MBq via a tail vein and euthanized at the time points indicated above, under isoflurane anesthesia. All tissues were dissected, weighed and counted for radioactivity in a gamma counter.
The biodistribution of [^18F]-1 was determined at 2, 10, 30 and 60 min, after injection in Sprague Dawley rats (n=3 per time point). Rats were injected intravenously with 0.7-1.1 MBq via a tail vein and euthanized at the time points indicated above, under isoflurane anesthesia. All tissues were dissected, weighed and counted for radioactivity in a gamma counter.

The next data set concerns the target T1, human mGlu3 (Homo sapiens, UniProt Q14832).
T1 construct: expressed in transfected cells; host or cells: HEK293
In words: [3H]-compound A displacement binding, human mGlu3 HEK293 membranes. Particulars: Glu3 HEK293, 25 nM [3H]-compound A. The protocol: (§2) For [^3H]-compound A (a NAM compound, selective for mGlu2/3 (˜20 fold selective for 2 over 3) vs other mGluRs) binding, membranes from human mGlu2 and mGlu3 HEK293 cells, and also rat cortical membranes, were used. After thawing, membranes were homogenized using an Ultra Turrax homogenizer and suspended in ice-cold binding buffer containing 50 mM Tris-HCl (pH 7.4), 10 mM MgCl2, 2 mM CaCl2. Displacement studies were done using 6 nM of radioligand, except for human mGlu3 membranes where 25 nM was used. Assay mixtures were incubated for 60 min at RT in a volume of 0.5 ml containing […] or 75 μg membrane protein of human mGlu2, human mGlu3 or rat cortex, respectively. Non-specific binding was estimated in the presence of […] compound B (a NAM with IC50˜10 nM against hmGlu2 and IC50˜200 nM against hmGlu3). Filtration was performed using Whatman GF/C filter sheets pre-soaked in 0.1% PEI and a Brandell harvester 96.
(§3) Filters from filters sheets were punched into vials. After the addition of scintillation liquid, radioactivity on the filters was counted in a Liquid Scintillation Analyzer from Perkin Elmer.
(§4) Radioligand competition binding data were calculated as percentage of total binding measured in the absence of test compound. Inhibition curves, plotting percentage of total binding versus the log concentration of the test compound, were generated using the Lexis software. Sigmoid inhibition curves were analyzed using non-linear regression analysis.

The next data set addresses T2, human mGlu2 (Homo sapiens, UniProt Q14416).
T2 construct: expressed in transfected cells; host or cells: HEK293
Put plainly: [3H]-compound A displacement binding, human mGlu2 HEK293 membranes. As to conditions: Glu2 HEK293, 6 nM [3H]-compound A. As for the experimental part:
as §2, §3, §4

T1 sequence (Q14832 23-879): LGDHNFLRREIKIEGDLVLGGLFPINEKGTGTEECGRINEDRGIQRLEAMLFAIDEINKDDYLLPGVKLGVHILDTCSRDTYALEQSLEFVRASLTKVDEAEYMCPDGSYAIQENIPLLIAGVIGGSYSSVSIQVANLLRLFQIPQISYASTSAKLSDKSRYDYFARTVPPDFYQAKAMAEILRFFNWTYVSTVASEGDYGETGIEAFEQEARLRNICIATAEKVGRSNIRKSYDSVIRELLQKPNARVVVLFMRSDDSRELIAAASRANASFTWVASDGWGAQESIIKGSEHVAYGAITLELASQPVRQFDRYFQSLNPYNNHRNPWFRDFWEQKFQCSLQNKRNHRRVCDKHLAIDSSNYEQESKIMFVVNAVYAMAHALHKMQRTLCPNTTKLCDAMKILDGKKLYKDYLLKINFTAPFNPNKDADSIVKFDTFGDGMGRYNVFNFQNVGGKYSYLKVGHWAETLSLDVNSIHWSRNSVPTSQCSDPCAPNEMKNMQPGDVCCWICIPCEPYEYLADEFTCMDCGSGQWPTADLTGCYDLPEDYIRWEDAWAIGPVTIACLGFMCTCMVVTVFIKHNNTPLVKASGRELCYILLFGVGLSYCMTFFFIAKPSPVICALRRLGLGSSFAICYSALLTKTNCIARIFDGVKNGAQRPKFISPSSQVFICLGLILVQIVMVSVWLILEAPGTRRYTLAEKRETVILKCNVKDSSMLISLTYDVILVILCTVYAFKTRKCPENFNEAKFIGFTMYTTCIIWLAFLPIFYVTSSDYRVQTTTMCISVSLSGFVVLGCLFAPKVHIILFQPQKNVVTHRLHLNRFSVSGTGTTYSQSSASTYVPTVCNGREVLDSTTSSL
T2 sequence (Q14416 19-872): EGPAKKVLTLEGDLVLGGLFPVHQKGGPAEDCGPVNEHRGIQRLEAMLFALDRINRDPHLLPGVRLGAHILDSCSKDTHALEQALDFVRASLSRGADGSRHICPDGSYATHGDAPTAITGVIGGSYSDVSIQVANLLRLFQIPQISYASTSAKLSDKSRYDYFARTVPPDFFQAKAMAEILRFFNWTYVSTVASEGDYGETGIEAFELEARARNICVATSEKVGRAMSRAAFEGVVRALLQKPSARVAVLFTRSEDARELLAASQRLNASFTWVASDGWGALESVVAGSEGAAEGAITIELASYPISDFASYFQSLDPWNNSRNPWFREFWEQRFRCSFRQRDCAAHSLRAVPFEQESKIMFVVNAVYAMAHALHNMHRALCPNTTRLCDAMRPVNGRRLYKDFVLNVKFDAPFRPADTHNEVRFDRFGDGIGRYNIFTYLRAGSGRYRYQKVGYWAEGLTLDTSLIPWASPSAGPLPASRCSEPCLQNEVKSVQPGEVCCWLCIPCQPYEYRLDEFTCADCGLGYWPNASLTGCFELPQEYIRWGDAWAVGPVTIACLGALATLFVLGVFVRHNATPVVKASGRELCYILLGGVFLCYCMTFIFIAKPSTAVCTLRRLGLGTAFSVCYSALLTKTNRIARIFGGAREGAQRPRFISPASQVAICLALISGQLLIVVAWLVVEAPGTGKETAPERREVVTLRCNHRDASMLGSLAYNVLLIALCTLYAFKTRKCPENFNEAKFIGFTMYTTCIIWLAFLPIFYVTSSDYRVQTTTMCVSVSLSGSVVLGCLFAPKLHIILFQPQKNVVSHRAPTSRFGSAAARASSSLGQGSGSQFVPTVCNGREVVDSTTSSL

As to `C[C@H]1CN(c2ccc(C(F)(F)F)c(C[18F])c2)C(=O)c2c(C#Cc3ccc(N)nc3)cnn21` [Compound 2], in the data set with mGluR2/3 (10 mg/kg compound A s.c. 60 min before tracer), the “Brain uptake after pretreatment with compound A” value is “peak uptake was higher after pretreatment, but generally showed a faster washout”. In addition, the “Brain uptake in PET scan, in words” value in the data set with mGluR2/3 (90 min dynamic PET scan) is on record as “high brain uptake”. For the same compound, the “mGluR2/3 specificity of binding in vivo” value with mGluR2/3 (PET, baseline vs compound A pretreatment) is recorded as “mGluR2/3 specific binding”. Also, the “Biodistribution, mean SUV” value in data set [1] (blood, 2 min after i.v. injection) stood at 0.96 SUV; in data set [1] (blood, 10 min after i.v. injection), 0.92 SUV; in data set [1] (blood, 60 min after i.v. injection), 0.67 SUV; in data set [1] (bone, 2 min after i.v. injection), 0.53 SUV; in data set [1] (bone, 10 min after i.v. injection), 0.62 SUV; in data set [1] (bone, 60 min after i.v. injection) it was 2.77 SUV. Besides, the “Biodistribution, mean SUV” value was determined as 1.53 SUV in data set [1] (cerebellum, 2 min after i.v. injection); 1.23 SUV in data set [1] (cerebellum, 10 min after i.v. injection); 0.73 SUV in data set [1] (cerebellum, 60 min after i.v. injection); 1.44 SUV in data set [1] (cerebrum + cerebellum, 2 min after i.v. injection); 1.34 SUV in data set [1] (cerebrum + cerebellum, 10 min after i.v. injection); 0.89 SUV in data set [1] (cerebrum + cerebellum, 60 min after i.v. injection). In addition, the “Biodistribution, mean SUV” value in data set [1] (cortex, 2 min after i.v. injection) came out at 2.50 SUV; in data set [1] (cortex, 10 min after i.v. injection), 2.51 SUV; in data set [1] (cortex, 60 min after i.v. injection), 1.56 SUV; in data set [1] (heart, 2 min after i.v. injection), 2.42 SUV; in data set [1] (heart, 10 min after i.v. injection) it was 1.67 SUV; in data set [1] (heart, 60 min after i.v. injection), 0.82 SUV. Also, the “Biodistribution, mean SUV” value was 1.03 SUV in data set [1] (hippocampus, 2 min after i.v. injection); 1.17 SUV in data set [1] (hippocampus, 10 min after i.v. injection); 0.74 SUV in data set [1] (hippocampus, 60 min after i.v. injection); 4.05 SUV in data set [1] (kidneys, 2 min after i.v. injection); 2.73 SUV in data set [1] (kidneys, 10 min after i.v. injection); 1.81 SUV in data set [1] (kidneys, 60 min after i.v. injection). In addition, the “Biodistribution, mean SUV” value is on record as 8.44 SUV in data set [1] (liver, 2 min after i.v. injection); 6.22 SUV in data set [1] (liver, 10 min after i.v. injection); 2.83 SUV in data set [1] (liver, 60 min after i.v. injection); 2.66 SUV in data set [1] (lungs, 2 min after i.v. injection); 1.52 SUV in data set [1] (lungs, 10 min after i.v. injection); 1.02 SUV in data set [1] (lungs, 60 min after i.v. injection). Moreover, the “Biodistribution, mean SUV” value in data set [1] (muscle, 2 min after i.v. injection) came to 0.88 SUV; in data set [1] (muscle, 10 min after i.v. injection) it was 0.82 SUV; in data set [1] (muscle, 60 min after i.v. injection), 0.59 SUV; in data set [1] (pancreas, 2 min after i.v. injection), 3.29 SUV; in data set [1] (pancreas, 10 min after i.v. injection), 2.06 SUV; in data set [1] (pancreas, 60 min after i.v. injection), 1.27 SUV. For the same compound, the “Biodistribution, mean SUV” value is recorded as 1.04 SUV in data set [1] (pons, 2 min after i.v. injection); 0.74 SUV in data set [1] (pons, 10 min after i.v. injection); 0.40 SUV in data set [1] (pons, 60 min after i.v. injection); 1.45 SUV in data set [1] (rest of cerebrum, 2 min after i.v. injection); 1.39 SUV in data set [1] (rest of cerebrum, 10 min after i.v. injection); 0.97 SUV in data set [1] (rest of cerebrum, 60 min after i.v. injection). Moreover, the “Biodistribution, mean SUV” value came to 2.53 SUV in data set [1] (spleen, 2 min after i.v. injection); 1.36 SUV in data set [1] (spleen, 10 min after i.v. injection); 0.87 SUV in data set [1] (spleen, 60 min after i.v. injection); 1.51 SUV in data set [1] (striatum, 2 min after i.v. injection); 1.61 SUV in data set [1] (striatum, 10 min after i.v. injection); 1.30 SUV in data set [1] (striatum, 60 min after i.v. injection). Further, the “Biodistribution, mean SUV” value in data set [1] (whole cerebrum, 2 min after i.v. injection) is 1.39 SUV; in data set [1] (whole cerebrum, 10 min after i.v. injection), 1.34 SUV; in data set [1] (whole cerebrum, 60 min after i.v. injection), 0.90 SUV. Also, the “Brain uptake, in words” value in data set [1] (ex-vivo biodistribution) was “medium brain uptake”. The “Defluorination judged from bone uptake over time” value in data set [1] (ex-vivo biodistribution) is listed as “massive defluorination”. Besides, in data set [1] (ex-vivo biodistribution), the “Peripheral uptake, in words” value is on record as “high uptake in the liver”. In addition, the “Eff Curve” value at human mGlu3 was 107.5; at human mGlu2, 94. Further, the IC50 is 4.37 nM at human mGlu3 and 2.82 nM on human mGlu2.
For the compound `C[C@H]1CN(c2ccc(C(F)(F)F)cc2)C(=O)c2c(C#Cc3cnc(N)cc3CO)cnn21` [Compound P-1], the melting point is 211.51 °C.
Compound `C[C@H]1CN(c2ccc(C(F)(F)F)c(CO)c2)C(=O)c2c(C#Cc3ccc(N)nc3)cnn21` [Compound P-3] came in with a melting point of 153.23 °C.
In turn, `C[C@H]1CN(c2ccc(C(F)(F)F)cc2)C(=O)c2c(C#Cc3cnc(N)cc3CF)cnn21` [[^19F]-1] came in with a melting point of 187.28 °C.

(Values after patent US11033641B2, “Radiolabelled mGluR2/3 pet ligands” (Janssen Pharmaceutica NV, priority 2015, dated 2021).)
